Consider 9 compounds from US7528138B2, “Pyrazolo[1,5-a]pyrimidines useful as inhibitors of protein kinases” (Vertex Pharmaceuticals Incorporated, priority 2004, dated 2009).

The pKi is the Ki on a negative log10 scale, so that one unit is a factor of ten.

pKi: −log10 of the molar value.

One assay addresses T1, Itk (Homo sapiens, UniProt Q08881).
T1 sequence (Q08881 1-620): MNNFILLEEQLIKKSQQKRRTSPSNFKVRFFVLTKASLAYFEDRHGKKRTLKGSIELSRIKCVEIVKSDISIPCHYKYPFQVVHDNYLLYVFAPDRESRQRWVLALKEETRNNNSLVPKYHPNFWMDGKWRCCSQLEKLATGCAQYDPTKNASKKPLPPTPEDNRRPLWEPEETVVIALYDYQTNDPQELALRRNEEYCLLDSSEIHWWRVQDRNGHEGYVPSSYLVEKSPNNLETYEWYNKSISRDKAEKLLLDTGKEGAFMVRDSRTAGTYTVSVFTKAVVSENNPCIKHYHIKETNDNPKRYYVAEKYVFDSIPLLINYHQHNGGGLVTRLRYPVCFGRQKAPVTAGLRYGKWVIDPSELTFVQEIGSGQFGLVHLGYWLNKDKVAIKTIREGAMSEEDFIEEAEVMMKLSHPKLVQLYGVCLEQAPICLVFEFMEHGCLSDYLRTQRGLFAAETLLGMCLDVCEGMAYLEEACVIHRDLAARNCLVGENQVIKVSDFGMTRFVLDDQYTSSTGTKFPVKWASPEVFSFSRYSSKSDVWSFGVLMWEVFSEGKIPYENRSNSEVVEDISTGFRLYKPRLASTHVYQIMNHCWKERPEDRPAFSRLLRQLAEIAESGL
Briefly: ITK Inhibition Assay (Radiometric), radioactive-phosphate incorporation. The class given is biochemical. The conditions noted are these: enzyme inhibition data (Ki), Table 11; radiometric or UV assay not stated. In a few lines: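 Radiometric 33P incorporation into SAM68 peptide (D332-443) with filter capture and scintillation counting; 10 min pre-incubation then 10 min reaction at 25° C. IC50 format: 30 nM Itk, 15 μM ATP, 2 μM peptide, HEPES pH 7.5. Ki(app) format: 50 nM Itk, 7.5 μM ATP, 3 μM peptide, MOPS pH 7.0.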

For the next assay, the target named is T2, JAK3 (Homo sapiens, UniProt P52333).
T2 sequence (P52333 1-1124): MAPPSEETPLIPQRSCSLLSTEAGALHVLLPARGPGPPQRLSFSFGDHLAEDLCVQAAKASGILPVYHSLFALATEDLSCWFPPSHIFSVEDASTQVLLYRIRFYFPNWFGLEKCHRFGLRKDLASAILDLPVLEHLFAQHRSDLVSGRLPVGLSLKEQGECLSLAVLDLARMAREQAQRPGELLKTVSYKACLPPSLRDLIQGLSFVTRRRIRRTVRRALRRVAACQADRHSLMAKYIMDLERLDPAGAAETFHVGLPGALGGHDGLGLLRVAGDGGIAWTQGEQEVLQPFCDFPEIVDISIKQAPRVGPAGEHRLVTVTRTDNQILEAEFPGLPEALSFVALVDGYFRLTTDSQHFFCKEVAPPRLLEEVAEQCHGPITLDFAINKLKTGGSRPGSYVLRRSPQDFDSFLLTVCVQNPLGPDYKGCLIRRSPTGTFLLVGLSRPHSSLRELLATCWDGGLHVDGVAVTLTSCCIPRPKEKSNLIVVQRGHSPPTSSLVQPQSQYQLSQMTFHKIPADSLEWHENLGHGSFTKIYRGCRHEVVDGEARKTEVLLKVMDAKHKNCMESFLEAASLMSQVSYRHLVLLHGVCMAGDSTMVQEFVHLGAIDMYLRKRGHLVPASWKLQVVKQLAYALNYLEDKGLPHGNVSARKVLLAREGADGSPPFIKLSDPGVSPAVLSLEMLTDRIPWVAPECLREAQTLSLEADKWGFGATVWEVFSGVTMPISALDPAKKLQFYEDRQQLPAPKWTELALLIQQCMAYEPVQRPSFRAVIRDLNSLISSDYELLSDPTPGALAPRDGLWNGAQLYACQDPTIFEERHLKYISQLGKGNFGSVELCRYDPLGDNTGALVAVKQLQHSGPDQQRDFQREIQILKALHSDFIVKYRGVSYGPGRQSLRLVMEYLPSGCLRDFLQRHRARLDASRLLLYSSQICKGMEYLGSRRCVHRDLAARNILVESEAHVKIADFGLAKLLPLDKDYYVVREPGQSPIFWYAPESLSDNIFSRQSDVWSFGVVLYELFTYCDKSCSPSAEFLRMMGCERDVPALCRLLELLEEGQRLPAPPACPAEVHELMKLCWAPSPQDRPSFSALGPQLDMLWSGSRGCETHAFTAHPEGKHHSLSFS
Description: JAK3 Inhibition Assay, 33P incorporation. The class given is biochemical. The conditions noted are these: enzyme inhibition data (Ki), Table 11. In a few lines:
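Recombinant JAK3 at 1 nM in HEPES pH 7.4 buffer with 10 mM MgCl2, 1 mM DTT and 0.01% BSA. Substrates were 5 μM ATP (200 uCi/μmole) and 1 μM poly(Glu)4Tyr, reacted 20 min at 25 °C. Stopped with TCA, and 33P incorporation counted on glass fiber filters.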

On to `CSc1cc(-c2c(N)nn3cc(C)cnc23)ncn1` [Compound V-281], for which the pKi at Itk and on JAK3 was 5.30 to 6.30 in each case.

As for `Cc1cnc2c(-c3cc(NC4CCN(Cc5ccccc5)CC4)ncn3)c(N)nn2c1` [Compound V-285], the pKi on Itk and on JAK3 was 5.30 to 6.30 in each case.

Regarding `Cc1cnc2c(-c3cc(NC4CCN(Cc5ccccc5)C4)ncn3)c(N)nn2c1` (stereo not drawn) [Compound V-286], the pKi at Itk and at JAK3 was 5.30 to 6.30 throughout.

Regarding `Cc1cnc2c(-c3cc(NC4CC4)ncn3)c(N)nn2c1` [Compound V-289], the pKi at Itk and on JAK3 was 5.30 to 6.30 in each case.

Take `Cc1cnc2c(-c3cc(NC4CCC4)ncn3)c(N)nn2c1` [Compound V-290]: the pKi on Itk and on JAK3 was 5.30 to 6.30 in each case.

For the compound `Cc1cnc2c(-c3cc(NC4CCCCC4)ncn3)c(N)nn2c1` [Compound V-291], the pKi on Itk and at JAK3 was 5.30 to 6.30 in each case.

As for `Cc1cnc2c(-c3cc(N[C@H](C)CO)ncn3)c(N)nn2c1` [Compound V-293], the pKi on Itk and on JAK3 was 5.30 to 6.30 throughout.

As for `CC[C@H](C)Nc1cc(-c2c(N)nn3cc(C)cnc23)ncn1` [Compound V-294], the pKi at Itk and on JAK3 was 5.30 to 6.30 throughout.

With `Cc1cnc2c(-c3cc(N[C@@H](C)CO)ncn3)c(N)nn2c1` [Compound V-295], the pKi on Itk and at JAK3 was 5.30 to 6.30 throughout.
